From ChEMBL document CHEMBL3507680, “University of Dundee, Gates Library screen for HepG2 cell viability” come the findings set out here.

Structures are written as SMILES.

The data set is described as follows: Human HepG2 cell viability assay in 384 well format. Type of data set: toxicity, cell-based. Also on record: dose 125 nL, time 70.5 hour; cytotoxicity at 70.5 h: concentration not given beside the values. Particulars: HepG2 cells, read-out: Inhibition.

In the case of `CC(C)CC(NC(=O)c1ccco1)c1nc2cccnc2n1C` (centres undefined), the cytotoxicity at 70.5 h is -1.92%.

With `CC[C@@H](Cn1ncc2ccccc2c1=O)NC(=O)c1cnccn1`, the cytotoxicity at 70.5 h was -4.08%.

Take `CC(C(=O)N(Cc1ccccc1)CC(F)(F)F)S(C)(=O)=O` (centres undefined): the cytotoxicity at 70.5 h was -5.47%.

Regarding `Cc1cnn(-c2ccc(S(N)(=O)=O)cc2F)c1`, the cytotoxicity at 70.5 h worked out at 20%.

Turning to `O=C(Cc1cccnc1)NC1COc2ccccc2C1=O` (centres undefined), the cytotoxicity at 70.5 h was -14.7%.

As for `COCCN(CCOC)C(=O)c1sc(C)nc1C`, the cytotoxicity at 70.5 h is -6.51%.

In the case of `CC(C)N(C)CC(=O)N1CCCC(n2ccnc2)C1` (centres undefined), the cytotoxicity at 70.5 h turned out to be 1.97%.

Consider `CCc1ccccc1CNC(=O)CNCC(F)(F)F`, for which the cytotoxicity at 70.5 h is -2.89%.

Consider `Cc1ccc2c(c1C)OCC2NCc1ccc(C#N)cc1` (centres undefined), for which the cytotoxicity at 70.5 h stood at 16.8%.

As to `FC(F)(F)Cn1ccnc1CNCCn1cccn1`, the cytotoxicity at 70.5 h is -6.92%.

As to `CC(SCCNS(=O)(=O)c1cnn(C)c1)c1cccc(F)c1` (centres undefined), the cytotoxicity at 70.5 h is -5.51%.

As for `c1ccc(-c2nccc(N3CCc4c(ncn4C4CC4)C3)n2)cc1`, the cytotoxicity at 70.5 h was -17.8%.

As for `COC(=O)CC(NC(=O)c1cccc(N2CCCC2=O)c1)c1cccs1` (centres undefined), the cytotoxicity at 70.5 h was determined as 4.95%.

For `Cn1cnnc1S(=O)(=O)Cc1cc(Cl)c2c(c1)OCO2`, the cytotoxicity at 70.5 h was 7.74%.

Regarding `Cc1csc(CNC(=O)CCCc2cccs2)n1`, the cytotoxicity at 70.5 h is -1.29%.

Consider `FC(F)(F)CN1CCC(CNc2nc3ccccc3o2)C1` (centres undefined), for which the cytotoxicity at 70.5 h was found to be 1.85%.

In the case of `CC(C)NC(=O)c1cnc(Sc2nccn2C)c(Cl)c1`, the cytotoxicity at 70.5 h is 9.84%.

With `Cc1ccccc1CN(C)C(=O)CCc1nc(-c2nnc[nH]2)no1`, the cytotoxicity at 70.5 h was determined as 8.55%.

`CC1CCCCN1C(=O)c1cn(-c2ccc(C(F)(F)F)cn2)nn1` (centres undefined): the cytotoxicity at 70.5 h was -6.25%.

On to `Cc1cc(NC(=O)c2ccc(N3CCOCC3)c(F)c2)[nH]n1`, for which the cytotoxicity at 70.5 h was -1.35%.

Turning to `CCC(NC(=O)c1cccc(N2CCCC2=O)c1)c1ccc(OC)cc1` (centres undefined), the cytotoxicity at 70.5 h was -4.2%.

As for `Cc1cc(C(=O)N(C)S(C)(=O)=O)ccc1F`, the cytotoxicity at 70.5 h came to 11.2%.

Consider `Cc1cc(C(=O)N(C)S(=O)(=O)C(C)C)ccc1F`, for which the cytotoxicity at 70.5 h is -4.29%.

On to `O=C1CCCCN1CSc1nnnn1-c1ccc(Cl)cc1`, for which the cytotoxicity at 70.5 h was -4.94%.

As for `CCc1ccc2c(c1)C(CCNC(=O)c1sccc1C)C(=O)N2` (centres undefined), the cytotoxicity at 70.5 h is -3.5%.

On to `CN(CCCc1ccccc1)C(=O)CCc1nc(-c2nnc[nH]2)no1`, for which the cytotoxicity at 70.5 h was -0.426%.

For the compound `CC(C#N)CN(C)Cc1ccc(Cl)c2cccnc12` (centres undefined), the cytotoxicity at 70.5 h was -3.13%.

On to `Cc1n[nH]cc1CNC(=O)CCCc1cccs1`, for which the cytotoxicity at 70.5 h was -3.35%.

Turning to `Cc1ccc(S(=O)(=O)NC(=O)CCc2ccco2)cc1N(C)C`, the cytotoxicity at 70.5 h amounted to 20.1%.

Turning to `Cc1cc(CN2CCN(Cc3cc(C#N)ccc3F)CC2)no1`, the cytotoxicity at 70.5 h is 0.144%.

Take `Cc1cc(CN2CCN(Cc3ccccc3F)CC2)no1`: the cytotoxicity at 70.5 h stood at 6.67%.

In the case of `O=C(CSc1nnc(N2CCOCC2)s1)NC(=O)Nc1ccccc1`, the cytotoxicity at 70.5 h is -4.91%.

For `O=C(Nc1cn[nH]c1)N1CCN(CCSc2ccccc2)CC1`, the cytotoxicity at 70.5 h was found to be 1.53%.

On to `Cc1cc(C2CCCN2C(=O)c2cnn(C)c2)on1` (centres undefined), for which the cytotoxicity at 70.5 h came to 14%.

In the case of `COC(=O)c1ccc(C(=O)N2CCc3c(ncn3C3CC3)C2)cc1`, the cytotoxicity at 70.5 h was -5.37%.

Turning to `O=C(Nc1cccc(F)c1)N1CCC(CO)(Nc2ccccc2)CC1`, the cytotoxicity at 70.5 h was -5.91%.

Take `Cn1cc(-c2nc(C(=O)N3CCCC3c3cnn(C)c3)cs2)cn1` (centres undefined): the cytotoxicity at 70.5 h is -5.1%.

For `CS(=O)(=O)c1ccccc1-n1cc(NC(=O)CC2C=CCC2)cn1` (centres undefined), the cytotoxicity at 70.5 h is -6.16%.

Consider `Cc1ccc(C2CCCCCN2C(=O)Nc2cn[nH]c2)o1` (centres undefined), for which the cytotoxicity at 70.5 h is -6.84%.

Regarding `COc1ncccc1C(=O)Nc1cccc(C[S+](C)[O-])c1C` (centres undefined), the cytotoxicity at 70.5 h was -6.07%.

As to `Cc1sc(NC(=O)CN(C)CCOc2cccc(F)c2)c(C)c1C`, the cytotoxicity at 70.5 h is -2.66%.

For `CCOc1ccccc1C(=O)Nc1cccc(C[S+](C)[O-])c1C` (centres undefined), the cytotoxicity at 70.5 h is 15.1%.

With `O=S(=O)(CCOc1ccc(F)cc1)Nc1cnn(CC(F)F)c1`, the cytotoxicity at 70.5 h is -6.59%.

In the case of `CCC(CC)C(O)CNC(=O)Cc1c[nH]c2ncccc12` (centres undefined), the cytotoxicity at 70.5 h was -4.44%.

As for `O=C(Cc1c[nH]c2ncccc12)NCC(O)c1ccsc1` (centres undefined), the cytotoxicity at 70.5 h is 0.0548%.

Consider `Cc1ccncc1NS(=O)(=O)c1ccc(Cl)s1`, for which the cytotoxicity at 70.5 h is -3.59%.

For the compound `CN(CC(C)(CO)CO)C(=O)Nc1cc(F)cc(F)c1`, the cytotoxicity at 70.5 h was found to be 2.39%.

Turning to `Cc1cc(F)cc(NC(=O)N(C)CC(C)(CO)CO)c1`, the cytotoxicity at 70.5 h was -1.87%.

Regarding `N#CCCN(CCC#N)Cc1ccc(Br)c2cccnc12`, the cytotoxicity at 70.5 h stood at 4.54%.

`CC(C)c1nnc(CN(C)Cc2ccccc2-c2ccccc2)o1`: the cytotoxicity at 70.5 h is -6.61%.

Turning to `O=C(Nc1cnn(Cc2ccccc2)c1)N1CCN(CCO)CC1`, the cytotoxicity at 70.5 h was -4.22%.

As to `CC(NCC1(N(C)C)CCOCC1)c1ccc(Cl)cc1` (centres undefined), the cytotoxicity at 70.5 h is -3.88%.

For the compound `CC(=O)N(C)Cc1cccc(NC(=O)c2cnn(C)c2C)c1`, the cytotoxicity at 70.5 h was found to be 22%.

For `O=C(c1csc(I)c1)N1CCc2c(ncn2C2CC2)C1`, the cytotoxicity at 70.5 h was -3.47%.

As for `CN(C)c1ncccc1C(=O)N1CCc2c(ncn2C2CC2)C1`, the cytotoxicity at 70.5 h is -4.54%.

As to `CN(C)CCN(CC1CCCO1)C(=O)Cc1cn2ccccc2n1` (centres undefined), the cytotoxicity at 70.5 h turned out to be 17.3%.

As to `COc1cc(Cl)c(NC(=O)c2cc3c([nH]c2=O)CCCC3=O)cc1OC`, the cytotoxicity at 70.5 h is -7.89%.

Regarding `CN(C)c1cc(C(=O)Nc2cccnc2N2CCSCC2)ccn1`, the cytotoxicity at 70.5 h is -9.49%.

Turning to `CC(C)(C)c1ncc(C(=O)NCc2ccccc2CN2CCCC2)s1`, the cytotoxicity at 70.5 h was -6.15%.

Regarding `O=C(Nc1cccnc1N1CCSCC1)c1ccc2c(c1)CCC2`, the cytotoxicity at 70.5 h is -3.24%.

Take `Cc1nnc2n1CCN(C(=O)C1CCC(n3cccc3)CC1)C2` (centres undefined): the cytotoxicity at 70.5 h is -8.85%.

`Cc1c(C(=O)N2CCOCC2)nnn1-c1ccc2ncccc2c1`: the cytotoxicity at 70.5 h is -6.04%.

`CCOCC(=O)Nc1nccn1Cc1ccccc1Cl`: the cytotoxicity at 70.5 h was determined as 13.6%.

On to `CC(C)N(C)CC(=O)Nc1nccn1Cc1ccccc1Cl`, for which the cytotoxicity at 70.5 h was -2.07%.

As to `Cc1c(C(=O)N2CCS(=O)(=O)CC2)nnn1-c1ccc2ncccc2c1`, the cytotoxicity at 70.5 h was -4.2%.

For the compound `CCN(CC)S(=O)(=O)CC(=O)N1CCc2ccc(F)cc21`, the cytotoxicity at 70.5 h was -2.84%.

For `CCN(CC)S(=O)(=O)CC(=O)N1CCc2ccc(Cl)cc21`, the cytotoxicity at 70.5 h is -1.78%.

As for `OCCOc1cc(F)ccc1NCc1cccc(F)c1F`, the cytotoxicity at 70.5 h is 1.35%.

Regarding `O=C(CNC(=O)c1ccoc1)NC(c1ccc(F)cc1)C(F)(F)F` (centres undefined), the cytotoxicity at 70.5 h was -3.8%.

`Cc1cc(CN(C2CC2)C(C)C(C)C)no1` (centres undefined): the cytotoxicity at 70.5 h is -2.85%.

On to `CC(C)N1CCC(CNC(=O)COc2ccc(F)cc2F)C1` (centres undefined), for which the cytotoxicity at 70.5 h is 4.12%.

For `CCN(CC)C(=O)CN(C)C(=O)c1cccn1CCc1ccccc1`, the cytotoxicity at 70.5 h was -3.38%.

In the case of `CC(C)(C)c1noc(CN2CCCC(CNS(N)(=O)=O)C2)n1` (centres undefined), the cytotoxicity at 70.5 h is -2.1%.

Take `CN1CCN(C(=O)c2csnn2)c2ccccc21`: the cytotoxicity at 70.5 h is 20.8%.

On to `Cc1nn(-c2ccccc2)c(C)c1CNC(=O)NC1CC(=O)N(C)C1` (centres undefined), for which the cytotoxicity at 70.5 h was -1.18%.

As to `CN(CC(=O)N(C)C1CC1)C1CCN(c2ccc(Cl)cc2)CC1`, the cytotoxicity at 70.5 h worked out at 24.7%.

For the compound `COCCC(C)NCc1ccccc1-n1ccnc1` (centres undefined), the cytotoxicity at 70.5 h was -3.09%.

For `CCOCCNC(=O)CCC1CCCO1` (centres undefined), the cytotoxicity at 70.5 h came out at 35.5%.

For the compound `Cc1cc(NC(=O)N2CCN(c3cccs3)CC2)ccc1C(N)=O`, the cytotoxicity at 70.5 h turned out to be 8.16%.

Consider `O=C(NCC1CCOC1)c1cc(-c2ccccc2Cl)[nH]n1` (centres undefined), for which the cytotoxicity at 70.5 h is -12.9%.

With `Cc1ccc(C(=O)N(C)CC(=O)N2CCCC2)c(C)c1`, the cytotoxicity at 70.5 h is -16%.

`Cc1cc(N(C)CC2COc3ccccc3O2)nc(C)n1` (centres undefined): the cytotoxicity at 70.5 h came to 9.74%.

On to `O=C1NCCCCC1NC(=O)N1CCc2ccccc21` (centres undefined), for which the cytotoxicity at 70.5 h was -14.4%.

Take `COc1ccc2c(c1)CCCN2C(=O)NC1CCCCNC1=O` (centres undefined): the cytotoxicity at 70.5 h was determined as 23.6%.

Regarding `O=S(=O)(Cc1nc(C2CC2)no1)c1ccccc1F`, the cytotoxicity at 70.5 h is -11.9%.

`CNS(=O)(=O)c1ccc(CNC(=O)NCc2cc[nH]n2)cc1`: the cytotoxicity at 70.5 h is -12.9%.

Regarding `O=C1NCCCCC1NC(=O)N1CCCc2cc(F)ccc21` (centres undefined), the cytotoxicity at 70.5 h is -4.74%.

For the compound `O=C(NCC1CCOC1)c1cc(-c2cccc(Cl)c2)[nH]n1` (centres undefined), the cytotoxicity at 70.5 h was -17%.

For `CC(NC(=O)NC1CCN(Cc2ccncc2)CC1)c1ccc(F)cc1` (centres undefined), the cytotoxicity at 70.5 h is -13.2%.

Regarding `Cc1noc(CS(=O)(=O)c2cc(F)ccc2F)n1`, the cytotoxicity at 70.5 h is -8.49%.

For the compound `CCc1nc(CSc2nnc(N)n2C2CC2)no1`, the cytotoxicity at 70.5 h was -7.26%.

As for `COc1ccccc1CNC(=O)C(C)N1CC(n2nc(C)cc2C)C1` (centres undefined), the cytotoxicity at 70.5 h was -1.72%.

As to `COc1cccc(-c2nc(CNCc3cccnc3)cs2)c1`, the cytotoxicity at 70.5 h is -17.2%.

For `CN(Cc1nc(CS(C)(=O)=O)no1)c1ccccc1`, the cytotoxicity at 70.5 h was -12.6%.

Regarding `Cc1ccccc1Cc1nc(CSc2nnc(N)n2C)no1`, the cytotoxicity at 70.5 h was -17.8%.

Regarding `CC(C)c1noc(C(C)N2CCC(c3nc4ccccc4o3)CC2)n1` (centres undefined), the cytotoxicity at 70.5 h is -18.9%.

As for `O=C1NCCCN1Cc1nc(-c2ccc(N3CCCCC3)cc2)no1`, the cytotoxicity at 70.5 h was -1.73%.

Take `Cc1ccn(C)c(=O)c1NC(=O)N(C)Cc1cccc(OC(C)C)c1`: the cytotoxicity at 70.5 h was 18.1%.

For the compound `CN(c1ncc(S(N)(=O)=O)s1)C1CCc2ccccc21` (centres undefined), the cytotoxicity at 70.5 h was -1.27%.

On to `Cc1cc(C(N)=O)ccc1NC(=O)N1CCN(c2cccs2)CC1`, for which the cytotoxicity at 70.5 h is -12.4%.

Turning to `O=C(CCC1CCCO1)NCCCO` (centres undefined), the cytotoxicity at 70.5 h is -18.3%.

For `CCN(CC)C(=O)CN1CCCC1C(=O)N(C)C` (centres undefined), the cytotoxicity at 70.5 h was -11.8%.

Turning to `Cc1nn(C)c(C)c1C1COCCN1C(=O)NC1CC1` (centres undefined), the cytotoxicity at 70.5 h amounted to 19.2%.

`CNc1ccccc1C(=O)N(C)CCc1ccccc1`: the cytotoxicity at 70.5 h was -5.46%.
